The values below come from patent publication US6710051B1, “Screening method” (Klaus Trier APS, priority 1997, dated 2004).

Test [1] deals with T1, skeletal RyR (Oryctolagus cuniculus, UniProt P11716).
T1 construct: Structure-activity Relationship of Xanthines and Skeletal Muscle Ryanodine Receptor/Ca^2+ Release Channel; from tissue; host or cells: Skeletal muscle
To be noted: xanthine […], cited from earlier work; for Bound [3H]ryanodine % of control / Bound [3H]ryanodine pmol/mg protein: 1 mmol/l AMPPCP; for Bound [3H]ryanodine pmol/mg protein: means±SD of 3-4 experiments.

Test [2] has as its system sclera. Briefly: Content of proteoglycanes in rabbit sclera after long term treatment (alcian blue method). The class given is in vivo. The arrangement: Proteoglycanes Decrease compared to the control, anterior sclera / Proteoglycanes Increase compared to the control, anterior sclera / Proteoglycanes Increase compared to the control, posterior sclera / Effect on proteoglycan content of posterior sclera in % compared to control: concentration or dose not given beside the values. To be noted: for Content of proteoglycanes, anterior sclera / Content of proteoglycanes, posterior sclera: wet weight. Here is the method:
(§1) Test animal: Charles River Deutschland Chinchilla Bastard female rabbits.
(§2) Number of animals: 6 test animals and 6 control animals
(§3) Age: approximately 8 weeks at the commencement of the test.
(§4) Weight: 1.4-1.9 kg at the commencement of the test.
Lightness/Darkness cycle: 12/12 hours.
(§5) Cages: The animals live in identical cages made of stainless steel (Scanbur), length 1 m, depth 0.52 m, height 0.5 m.
Food: Stanrab standard diet from Special Diet Services, P.O. Box 705, Witham Essex CM8 3AD, UK (further details, see Table A).
(§6) Amount of food: Increasing from 75 g per day at the commencement of the test up to 130 g after three months.
(§7) Experimental drinking water 1 contained theophyllin in a dose equivalent of 27 mg increasing to 63 mg (added as theophyllin and ethylendiamin in a dose of 33 to 77 mg) daily.
(§8) Experimental drinking water 2 contained fluoxetine (Fontex, Lilly) in a dose equivalent of 2 mg increasing to 5 mg daily.
Experimental diet 2 was added 4.5 g L-cystine per kg Stanrab standard diet equivalent of a daily L-cystine dose of 338 mg increasing to 585 mg per day. With respect to the supplement of L-cystine, the normal intake per day of the standard diet is 218 mg increasing to 377 mg L-cystine.
(§9) Experimental diet 3 was added 7-methylxanthine 500 mg per kg Stanrab standard diet equivalent of a daily 7-methylxanthine dose of […] per day.
(§10) Experimental diet 4 was added theobromine (3,7-dimethylxanthine) 500 mg per kg Stanrab standard diet equivalent of a daily theobromine dose of […] per day.
(§11) Experimental diet 5 was added acetazolamide 500 mg per kg Stanrab standard diet equivalent of a daily acetazolamide dose of […] per day.
Experimental diet 6 was added 4.5 g L-ornithine per kg Stanrab standard diet equivalent of a daily L-ornithine dose of 338 mg increasing to 585 mg per day.
(§12) Collection of sample: Sclera biopsies are taken for analysis for proteoglycane content, distribution between the individual glycosaminoglycanes and the content of collagen specific amino acids. Four tests from each animal: Two samples from the front, 5×10 mm along limbus (without cornea), and two samples from the back, punch 10 mm corresponding to the center of the retina. Furthermore, tests are taken for electron microscopy (EM) from two animals in each group.
Analyses: Samples for proteoglycane analysis are frozen down immediately. The samples are analyzed by Wieslab AB, IDEON, S-223 70 Lund, Sweden, by means of a method which has been described by Björnsson, S., Analytical Biochemistry 210, 282-291 (1993). The method comprises extraction by 20 microliters of 4 M guanidine-HCl, 50 Mm sodium acetate per mg wet weight over night by room temperatures. The extracts are centrifuged in order to remove debris. 20 microliters of supernatant are reduced 1/10 in extraction buffer and 20 microliters of reduced supernatant are mixed with 10 microliters of reagent 1 (see Björnsson, S., Analytical biochemistry 210, 282-291 (1993)) on a shaking table for 15 minutes. 200 microliters of reagent 2 are added and the tests are incubated for 60 minutes in order to precipitate the proteoglycanes. The proteoglycane/alcian blue precipitate is transferred to 96-wells MillBlotD apparatus and washed with 2×200 microliters of 40% DMSO, 0.05 M of MgCl2. The colour intensity of the wells are quantitated by microtech E3 scanner and Scan Analysis software (Biosoft, Cambridge, U.K.). Chrondroitine-6-sulphate (Sigma C4384) is used as the calibrator. All samples are analyzed in duplicate.
The results of longterm treatment with each of the 8 substances specified above are shown in Example 2 (treatment for 12 weeks) and Example 4 (treatment for 10 weeks).

Test [3] deals with sclera. Briefly: Content of collagen specific amino acids in rabbit sclera after long term treatment (HPLC). The class given is in vivo. Further details: Hydroxylysine Decr. compared to the control / Hydroxyproline Inc. compared to the control / Proline Inc. compared to the control: concentration or dose not given beside the values. Particulars: for Hydroxylysine Decr. compared to the control / Hydroxylysine content / Hydroxyproline content / Proline content / Hydroxyproline Inc. compared to the control / Proline Inc. compared to the control: 3 months treatment; for Hydroxylysine content / Hydroxyproline content / Proline content: dried defatted weight.
Source text: as §1, §2, §3, §4, §5, §6, §7, §8, §9, §10, §11, §12
Samples for analysis for content of collagen specific amino acids are frozen down immediately. The amino acid content is determined by HPLC-chromatography.
The dried tissue with constant weight is minced into very fine particles with a pair of scissors, approximately 20 per piece of tissue. The small flakes from each original piece of tissue ate divided into two equally sized portions, one of which is employed for hydrolysis and the other one is kept for reference. The constant dry weight of each portion is known.
From each resolubilized hydrolysate 3 aliquots of each 8 microliters and 3 aliquots of 40 μl are taken and transferred to separate polypropylene tubes in which 20 microliters of a solution of internal standard substances citrulline and 2 aminobutyric acid were added where the further method takes place.
The taken aliquots from hydrolysate are dried in a vacuum exsiccator at 35° C. over night and subsequently submitted to derivatization with phenylisothiocyanate.
The resulting phenylisothiocarbamates are transferred to the HPLC instrument for separation and quantification. A new set of calibration curves is established, 1 curve for each of the 19 amino acids, prior to the analysis of the samples from one investigation.
The concentration range of standard samples exceed the ranges of amino acid concentrations in the unknowns. Hydroxyproline and proline are quantitated from the 8 microliter aliquots, and hydroxylysine is quantitated from the 40 microliter aliquots.

Test [4] deals with sclera. Described as above. The class given is in vivo. To be noted: dried defatted weight, 10 weeks treatment (Example 4).
[5] abbreviates: control 1,3-dimethylxanthine = 100.
The mark [6] stands for this setting: posterior sclera, 10 weeks treatment (Example 4).

Read-outs that look alike come from different tables or passages of the source. Marks after values point to notes of the source that are not given here.

T1 sequence (P11716 whole entry): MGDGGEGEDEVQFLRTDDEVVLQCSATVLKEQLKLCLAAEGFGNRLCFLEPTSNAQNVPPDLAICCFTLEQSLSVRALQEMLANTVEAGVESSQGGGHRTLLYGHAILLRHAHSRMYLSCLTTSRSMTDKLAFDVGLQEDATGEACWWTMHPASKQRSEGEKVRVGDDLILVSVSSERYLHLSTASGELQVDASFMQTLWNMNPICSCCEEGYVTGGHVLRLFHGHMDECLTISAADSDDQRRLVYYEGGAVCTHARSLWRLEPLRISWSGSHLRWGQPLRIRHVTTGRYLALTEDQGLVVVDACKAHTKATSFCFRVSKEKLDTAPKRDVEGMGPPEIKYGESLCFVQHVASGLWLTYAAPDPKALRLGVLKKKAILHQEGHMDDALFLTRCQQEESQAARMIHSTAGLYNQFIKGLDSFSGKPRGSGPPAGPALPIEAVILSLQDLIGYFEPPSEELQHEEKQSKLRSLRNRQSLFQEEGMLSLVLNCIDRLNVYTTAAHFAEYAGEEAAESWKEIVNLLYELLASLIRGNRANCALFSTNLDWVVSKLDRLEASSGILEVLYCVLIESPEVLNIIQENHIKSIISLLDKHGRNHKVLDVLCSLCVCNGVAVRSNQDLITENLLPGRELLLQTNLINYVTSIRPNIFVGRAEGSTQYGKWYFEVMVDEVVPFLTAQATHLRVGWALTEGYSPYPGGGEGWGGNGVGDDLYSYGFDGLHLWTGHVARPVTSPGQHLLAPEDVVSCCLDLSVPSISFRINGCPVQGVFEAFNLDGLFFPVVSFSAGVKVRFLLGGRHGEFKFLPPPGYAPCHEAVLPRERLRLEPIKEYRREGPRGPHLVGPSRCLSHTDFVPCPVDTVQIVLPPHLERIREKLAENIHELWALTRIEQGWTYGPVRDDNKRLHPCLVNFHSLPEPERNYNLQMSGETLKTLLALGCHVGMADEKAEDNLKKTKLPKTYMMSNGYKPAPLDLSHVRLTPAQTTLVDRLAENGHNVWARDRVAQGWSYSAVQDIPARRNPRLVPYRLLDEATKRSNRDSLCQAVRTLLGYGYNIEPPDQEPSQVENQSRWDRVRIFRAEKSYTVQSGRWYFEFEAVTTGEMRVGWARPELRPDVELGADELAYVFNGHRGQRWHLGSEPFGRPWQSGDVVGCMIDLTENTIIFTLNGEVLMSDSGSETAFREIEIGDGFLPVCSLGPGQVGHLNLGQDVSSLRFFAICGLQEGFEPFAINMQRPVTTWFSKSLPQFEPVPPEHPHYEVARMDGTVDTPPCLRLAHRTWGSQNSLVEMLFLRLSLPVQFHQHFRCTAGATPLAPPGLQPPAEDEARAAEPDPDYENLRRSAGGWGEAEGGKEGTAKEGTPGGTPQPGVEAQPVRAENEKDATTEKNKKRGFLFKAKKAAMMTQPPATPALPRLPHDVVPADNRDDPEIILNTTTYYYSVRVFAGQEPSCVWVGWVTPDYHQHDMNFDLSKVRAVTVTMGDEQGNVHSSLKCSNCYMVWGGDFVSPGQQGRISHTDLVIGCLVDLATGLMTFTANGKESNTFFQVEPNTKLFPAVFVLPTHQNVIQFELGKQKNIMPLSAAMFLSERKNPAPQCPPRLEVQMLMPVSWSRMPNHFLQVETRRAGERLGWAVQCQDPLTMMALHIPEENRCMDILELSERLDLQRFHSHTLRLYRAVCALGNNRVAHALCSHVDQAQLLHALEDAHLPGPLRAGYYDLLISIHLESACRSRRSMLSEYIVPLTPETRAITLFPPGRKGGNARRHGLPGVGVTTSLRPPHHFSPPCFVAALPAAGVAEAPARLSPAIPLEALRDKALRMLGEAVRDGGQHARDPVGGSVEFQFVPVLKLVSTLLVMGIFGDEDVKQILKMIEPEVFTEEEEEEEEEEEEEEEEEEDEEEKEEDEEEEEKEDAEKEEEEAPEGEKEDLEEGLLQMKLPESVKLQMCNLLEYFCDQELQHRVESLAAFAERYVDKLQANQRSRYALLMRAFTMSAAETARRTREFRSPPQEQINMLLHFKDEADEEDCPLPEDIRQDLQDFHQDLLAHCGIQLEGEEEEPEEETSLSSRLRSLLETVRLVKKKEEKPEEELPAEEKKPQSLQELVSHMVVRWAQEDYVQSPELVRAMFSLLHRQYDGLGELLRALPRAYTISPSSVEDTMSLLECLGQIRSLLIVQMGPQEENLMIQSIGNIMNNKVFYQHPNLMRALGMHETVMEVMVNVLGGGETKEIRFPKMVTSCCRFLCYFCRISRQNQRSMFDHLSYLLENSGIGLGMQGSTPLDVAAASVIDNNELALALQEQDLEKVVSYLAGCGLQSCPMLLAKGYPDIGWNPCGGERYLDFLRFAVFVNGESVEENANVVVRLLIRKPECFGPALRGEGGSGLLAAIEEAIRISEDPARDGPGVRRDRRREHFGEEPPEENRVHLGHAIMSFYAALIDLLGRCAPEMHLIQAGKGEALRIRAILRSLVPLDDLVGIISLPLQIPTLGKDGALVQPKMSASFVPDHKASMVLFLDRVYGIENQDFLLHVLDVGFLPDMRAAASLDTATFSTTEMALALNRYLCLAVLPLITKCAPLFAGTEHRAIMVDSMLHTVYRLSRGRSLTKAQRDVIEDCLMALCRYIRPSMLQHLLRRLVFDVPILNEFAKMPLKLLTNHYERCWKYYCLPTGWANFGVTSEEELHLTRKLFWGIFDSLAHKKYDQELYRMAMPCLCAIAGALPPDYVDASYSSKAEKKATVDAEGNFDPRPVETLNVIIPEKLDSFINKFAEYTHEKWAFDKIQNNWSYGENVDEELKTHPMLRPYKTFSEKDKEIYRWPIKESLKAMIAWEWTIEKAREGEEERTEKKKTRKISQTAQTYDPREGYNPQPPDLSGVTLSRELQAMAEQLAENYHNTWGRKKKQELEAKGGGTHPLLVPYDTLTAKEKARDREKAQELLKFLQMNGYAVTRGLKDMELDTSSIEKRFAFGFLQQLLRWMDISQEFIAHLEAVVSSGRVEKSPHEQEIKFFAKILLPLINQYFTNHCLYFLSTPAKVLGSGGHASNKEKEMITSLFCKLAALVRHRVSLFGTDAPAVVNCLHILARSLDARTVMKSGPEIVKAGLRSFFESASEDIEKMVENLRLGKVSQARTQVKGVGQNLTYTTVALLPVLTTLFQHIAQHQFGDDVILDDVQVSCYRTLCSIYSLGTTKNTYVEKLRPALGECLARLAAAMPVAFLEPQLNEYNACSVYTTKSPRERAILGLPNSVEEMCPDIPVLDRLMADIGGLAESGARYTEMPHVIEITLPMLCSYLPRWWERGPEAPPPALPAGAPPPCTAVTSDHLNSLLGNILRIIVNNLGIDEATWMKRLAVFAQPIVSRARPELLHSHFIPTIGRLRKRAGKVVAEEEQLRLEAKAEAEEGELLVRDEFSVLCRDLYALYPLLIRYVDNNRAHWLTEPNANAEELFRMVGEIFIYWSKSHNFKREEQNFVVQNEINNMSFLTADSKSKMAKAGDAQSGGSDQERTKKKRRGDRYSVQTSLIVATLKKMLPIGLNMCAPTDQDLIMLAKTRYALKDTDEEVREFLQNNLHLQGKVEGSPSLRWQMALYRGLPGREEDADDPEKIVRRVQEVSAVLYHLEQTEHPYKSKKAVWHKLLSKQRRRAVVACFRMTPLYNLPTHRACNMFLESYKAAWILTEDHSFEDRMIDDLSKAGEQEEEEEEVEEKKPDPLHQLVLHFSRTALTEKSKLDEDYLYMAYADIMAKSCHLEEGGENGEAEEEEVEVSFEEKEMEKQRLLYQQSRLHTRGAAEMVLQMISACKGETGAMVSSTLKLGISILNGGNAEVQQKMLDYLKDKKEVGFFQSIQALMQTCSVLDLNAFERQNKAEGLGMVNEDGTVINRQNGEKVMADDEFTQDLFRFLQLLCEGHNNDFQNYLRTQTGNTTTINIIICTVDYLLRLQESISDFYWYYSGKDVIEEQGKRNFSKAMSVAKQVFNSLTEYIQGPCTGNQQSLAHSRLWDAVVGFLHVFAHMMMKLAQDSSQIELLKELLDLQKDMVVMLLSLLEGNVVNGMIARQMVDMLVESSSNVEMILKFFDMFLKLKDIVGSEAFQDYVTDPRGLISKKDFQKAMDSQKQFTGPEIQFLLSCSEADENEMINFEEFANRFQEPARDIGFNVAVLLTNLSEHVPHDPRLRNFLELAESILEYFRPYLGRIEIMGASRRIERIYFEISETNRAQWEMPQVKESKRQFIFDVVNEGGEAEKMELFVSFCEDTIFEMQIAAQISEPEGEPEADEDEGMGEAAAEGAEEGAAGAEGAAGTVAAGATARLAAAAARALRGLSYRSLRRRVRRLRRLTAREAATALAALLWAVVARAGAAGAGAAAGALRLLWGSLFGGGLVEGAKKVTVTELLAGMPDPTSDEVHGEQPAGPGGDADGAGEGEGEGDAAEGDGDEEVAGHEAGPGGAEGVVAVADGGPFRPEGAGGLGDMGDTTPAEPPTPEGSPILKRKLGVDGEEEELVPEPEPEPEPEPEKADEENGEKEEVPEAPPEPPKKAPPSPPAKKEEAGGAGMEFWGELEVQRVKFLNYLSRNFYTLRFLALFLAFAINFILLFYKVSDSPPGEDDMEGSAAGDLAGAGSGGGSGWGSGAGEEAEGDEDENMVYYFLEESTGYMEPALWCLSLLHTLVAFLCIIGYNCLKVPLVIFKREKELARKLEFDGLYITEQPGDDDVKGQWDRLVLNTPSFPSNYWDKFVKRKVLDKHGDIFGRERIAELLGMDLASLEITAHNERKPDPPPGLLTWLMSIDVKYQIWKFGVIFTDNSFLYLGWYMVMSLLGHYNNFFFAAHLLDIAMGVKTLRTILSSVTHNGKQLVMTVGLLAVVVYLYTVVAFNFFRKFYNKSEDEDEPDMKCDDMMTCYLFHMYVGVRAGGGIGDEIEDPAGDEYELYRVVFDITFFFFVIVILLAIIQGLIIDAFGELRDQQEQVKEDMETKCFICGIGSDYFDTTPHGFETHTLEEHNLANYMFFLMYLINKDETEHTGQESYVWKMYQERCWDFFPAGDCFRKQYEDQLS

`Cn1c(=O)c2[nH]c(C3CCCC3)nc2n(C)c1=O` [8-Cyclopentyl-1,3-dimethylxanthine]: the “Bound [3H]ryanodine % of control” value in test [1] (setting [5]) is listed as 78 ± 8 % of control. For the same molecule, the “Bound [3H]ryanodine pmol/mg protein” value in test [1] is recorded as 2.25 ± 0.28 pmol/mg protein. Also, in test [1] (control (-xanthine) = 100), the “Bound [3H]ryanodine, % of control, +1 mmol/l AMPPCP” value is listed as 133 ± 6 % of control and the “Bound [3H]ryanodine, % of control, +3 mmol/l AMP” value is given as 142 ± 14 % of control.

With `Cc1nc2[nH]c(=O)[nH]c(=O)c2[nH]1` [8-Methylxanthine], in test [1] (control (-xanthine) = 100), the “Bound [3H]ryanodine % of control” value was 95 ± 20 % of control; the “Bound [3H]ryanodine, % of control, +1 mmol/l AMPPCP” value is 95 ± 20 % of control; the “Bound [3H]ryanodine, % of control, +3 mmol/l AMP” value is reported as 90 ± 11 % of control. Also, in test [1], the “Bound [3H]ryanodine pmol/mg protein” value was 1.61 ± 0.33 pmol/mg protein.

On to `Cn1c(=O)c2[nH]c(-c3ccccc3)nc2n(C)c1=O` [8-Phenyl-1,3-dimethylxanthine], for which the “Bound [3H]ryanodine % of control” value in test [1] (setting [5]) is given as 58 ± 9 % of control. Moreover, in test [1], the “Bound [3H]ryanodine pmol/mg protein” value is 1.67 ± 0.31 pmol/mg protein. In test [1] (control (-xanthine) = 100), the “Bound [3H]ryanodine, % of control, +1 mmol/l AMPPCP” value is listed as 99 ± 18 % of control and the “Bound [3H]ryanodine, % of control, +3 mmol/l AMP” value is reported as 103 ± 14 % of control.

On to `Cn1c(=O)c2[nH]c(CCC(=O)O)nc2n(C)c1=O` [8-Propionic acid 1,3-dimethylxanthine], for which the “Bound [3H]ryanodine % of control” value in test [1] (setting [5]) is reported as 60 ± 3 % of control. The “Bound [3H]ryanodine pmol/mg protein” value in test [1] was 1.73 ± 0.09 pmol/mg protein. Moreover, in test [1] (control (-xanthine) = 100), the “Bound [3H]ryanodine, % of control, +1 mmol/l AMPPCP” value is recorded as 102 ± 5 % of control and the “Bound [3H]ryanodine, % of control, +3 mmol/l AMP” value is on record as 100 ± 11 % of control.

For the molecule `CCCn1cnc2c(=O)[nH]c(=O)[nH]c21` [9-Propylxanthine], in test [1] (control (-xanthine) = 100), the “Bound [3H]ryanodine % of control” value is reported as 96 ± 12 % of control; the “Bound [3H]ryanodine, % of control, +1 mmol/l AMPPCP” value is 96 ± 12 % of control; the “Bound [3H]ryanodine, % of control, +3 mmol/l AMP” value is 97 ± 23 % of control. The “Bound [3H]ryanodine pmol/mg protein” value in test [1] is given as 1.62 ± 0.20 pmol/mg protein.

Take `CC(=O)Nc1nnc(S(N)(=O)=O)s1` [Acetazolamide, acetazolamide]: in test [2] (10 weeks treatment (Example 4)), the “Content of proteoglycanes, anterior sclera” value is recorded as 2.9 +/− 0.4 μg PG/mg tissue and the “Content of proteoglycanes, posterior sclera” value (shortened to “Content … posterior sclera”) is on record as 2.8 +/− 0.8 μg PG/mg tissue. Also, the “content of hydroxyproline and proline in anterior sclera (in words)” value in test [3] (Example 4, versus control, significantly) is given as “reduced”. Moreover, in test [3] (setting [6]), the “Hydroxylysine Decr.” value worked out at 7%, the “Hydroxyproline Decr.” value was 10% and the “Proline Decr.” value was determined as 10%. In test [4] (anterior sclera), the Hydroxylysine content was 41 +/− 4 nanomol/mg tissue, the Hydroxyproline content is 596 +/− 27* nanomol/mg tissue and the Proline content is listed as 843 +/− 47* nanomol/mg tissue. Further, in test [4] (posterior sclera), the Hydroxylysine content is 38 +/− 6 nanomol/mg tissue, the Hydroxyproline content is on record as 563 +/− 91 nanomol/mg tissue and the Proline content is given as 781 +/− 125 nanomol/mg tissue.

For the molecule `CNCCC(Oc1ccc(C(F)(F)F)cc1)c1ccccc1` (centres unmarked) [Fluoxetine, fluoxetine], in test [2] (3 months treatment), the “Proteoglycanes Decrease compared to the control, anterior sclera” value was 19%; the “Content of proteoglycanes, anterior sclera” value was 2.2 +/− 0.4* μg PG/mg tissue; the “Content … posterior sclera” value is recorded as 2.6 +/− 0.2 μg PG/mg tissue. Also, in test [3] (anterior sclera), the “Hydroxylysine Decr. compared to the control” value is reported as 20%, the Hydroxylysine content was 33 +/− 11 nanomol/mg tissue, the Hydroxyproline content was 619 +/− 40 nanomol/mg tissue and the Proline content is 896 +/− 21 nanomol/mg tissue. In test [3] (posterior sclera), the “Hydroxyproline Inc. compared to the control” value is 17%, the “Proline Inc. compared to the control” value was determined as 15%, the Hydroxylysine content is 41 +/− 13 nanomol/mg tissue and the Hydroxyproline content is on record as 640 +/− 31 nanomol/mg tissue. The Proline content in test [3] (posterior sclera) is recorded as 927 +/− 15 nanomol/mg tissue.

For the molecule `N[C@@H](CSSC[C@H](N)C(=O)O)C(=O)O` [L-cystine], in test [2] (3 months treatment), the “Proteoglycanes Increase compared to the control, anterior sclera” value was found to be 29%; the “Proteoglycanes Increase compared to the control, posterior sclera” value was determined as 29%; the “Content of proteoglycanes, anterior sclera” value was 3.5 +/− 0.5* μg PG/mg tissue; the “Content … posterior sclera” value is recorded as 3.5 +/− 0.4* μg PG/mg tissue. In addition, in test [3] (anterior sclera), the Hydroxylysine content was 45 +/− 10 nanomol/mg tissue, the Hydroxyproline content is recorded as 599 +/− 41 nanomol/mg tissue and the Proline content is 885 +/− 22 nanomol/mg tissue. For the same molecule, in test [3] (posterior sclera), the “Hydroxyproline Inc. compared to the control” value came to 9%, the “Proline Inc. compared to the control” value turned out to be 7%, the Hydroxylysine content is on record as 43 +/− 8 nanomol/mg tissue and the Hydroxyproline content is given as 596 +/− 39 nanomol/mg tissue. Also, the Proline content in test [3] (posterior sclera) is recorded as 867 +/− 14 nanomol/mg tissue.

In the case of `Cn1c(=O)c2[nH]cnc2n(C)c1=O.Cn1c(=O)c2[nH]cnc2n(C)c1=O.NCCN` [Teofylamin], in test [2] (3 months treatment), the “Proteoglycanes Decrease compared to the control, anterior sclera” value came out at 11%; the “Content of proteoglycanes, anterior sclera” value was 2.4 +/− 0.5 μg PG/mg tissue; the “Content … posterior sclera” value was 2.7 +/− 0.3 μg PG/mg tissue. For the same molecule, in test [3] (anterior sclera), the “Hydroxylysine Decr. compared to the control” value is 32%, the “Hydroxyproline Inc. compared to the control” value turned out to be 8%, the “Proline Inc. compared to the control” value worked out at 8% and the Hydroxylysine content was 28 +/− 10 nanomol/mg tissue. Moreover, in test [3] (anterior sclera), the Hydroxyproline content is recorded as 653 +/− 39 nanomol/mg tissue and the Proline content is given as 958 +/− 23 nanomol/mg tissue. In test [3] (posterior sclera), the “Hydroxylysine Decr. compared to the control” value worked out at 35%, the “Hydroxyproline Inc. compared to the control” value is reported as 18%, the “Proline Inc. compared to the control” value turned out to be 11% and the Hydroxylysine content is 28 +/− 15 nanomol/mg tissue. Also, in test [3] (posterior sclera), the Hydroxyproline content is 643 +/− 74 nanomol/mg tissue and the Proline content is reported as 902 +/− 53 nanomol/mg tissue.
